Assay results reported in ChEMBL document CHEMBL3991601, “The target landscape of clinical kinase drugs” (Science, 2017).
Active and inactive are the calls of the source. Cut-off read from the data, not from the text of the source, for most assays here: actives have a measured Kd and inactives only a lower limit.

How the values were obtained:
[1] = molecular target: Tyrosine-protein kinase CSK (Homo sapiens, UniProt P41240)
[2] = molecular target: T1, Serine/threonine-protein kinase TAO3 (Homo sapiens, UniProt Q9H2K8)
T1 sequence (Q9H2K8 whole entry): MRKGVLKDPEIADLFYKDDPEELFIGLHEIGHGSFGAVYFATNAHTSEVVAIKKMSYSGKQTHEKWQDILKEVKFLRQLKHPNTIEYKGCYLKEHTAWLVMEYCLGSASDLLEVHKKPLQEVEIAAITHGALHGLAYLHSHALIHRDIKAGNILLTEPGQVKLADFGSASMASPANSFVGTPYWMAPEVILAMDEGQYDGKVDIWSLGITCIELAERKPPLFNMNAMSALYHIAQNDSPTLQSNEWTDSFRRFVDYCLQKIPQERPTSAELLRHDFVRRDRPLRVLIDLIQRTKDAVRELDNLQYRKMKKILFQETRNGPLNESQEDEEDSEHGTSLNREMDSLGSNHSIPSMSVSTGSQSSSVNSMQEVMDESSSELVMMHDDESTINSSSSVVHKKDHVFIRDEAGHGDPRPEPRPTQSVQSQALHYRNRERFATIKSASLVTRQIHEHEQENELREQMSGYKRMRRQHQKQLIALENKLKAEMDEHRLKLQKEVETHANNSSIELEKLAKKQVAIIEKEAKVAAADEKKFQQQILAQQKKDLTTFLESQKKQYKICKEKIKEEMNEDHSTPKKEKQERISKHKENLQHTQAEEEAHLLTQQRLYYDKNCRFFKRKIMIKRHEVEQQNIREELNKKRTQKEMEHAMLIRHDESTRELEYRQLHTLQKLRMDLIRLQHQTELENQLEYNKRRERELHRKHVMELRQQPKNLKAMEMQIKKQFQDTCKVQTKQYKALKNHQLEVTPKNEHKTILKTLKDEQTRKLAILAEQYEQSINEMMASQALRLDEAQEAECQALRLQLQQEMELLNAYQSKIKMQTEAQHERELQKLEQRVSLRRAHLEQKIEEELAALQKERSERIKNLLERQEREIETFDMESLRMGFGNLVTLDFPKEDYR

[3] = molecular target: Cyclin-dependent kinase 3 (Homo sapiens, UniProt Q00526)
Cyclin-dependent kinase 3, sequence (Q00526 whole entry): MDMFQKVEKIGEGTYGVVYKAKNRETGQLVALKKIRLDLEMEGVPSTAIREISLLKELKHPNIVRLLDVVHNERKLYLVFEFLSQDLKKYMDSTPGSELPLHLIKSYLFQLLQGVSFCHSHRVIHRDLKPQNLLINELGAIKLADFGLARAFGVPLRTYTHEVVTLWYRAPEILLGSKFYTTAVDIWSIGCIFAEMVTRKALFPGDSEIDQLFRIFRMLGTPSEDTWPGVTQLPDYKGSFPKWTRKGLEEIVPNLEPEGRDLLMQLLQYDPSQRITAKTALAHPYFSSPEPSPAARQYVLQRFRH

[4] = molecular target: T2, NUAK family SNF1-like kinase 2 (Homo sapiens, UniProt Q9H093)
T2 sequence (Q9H093 whole entry): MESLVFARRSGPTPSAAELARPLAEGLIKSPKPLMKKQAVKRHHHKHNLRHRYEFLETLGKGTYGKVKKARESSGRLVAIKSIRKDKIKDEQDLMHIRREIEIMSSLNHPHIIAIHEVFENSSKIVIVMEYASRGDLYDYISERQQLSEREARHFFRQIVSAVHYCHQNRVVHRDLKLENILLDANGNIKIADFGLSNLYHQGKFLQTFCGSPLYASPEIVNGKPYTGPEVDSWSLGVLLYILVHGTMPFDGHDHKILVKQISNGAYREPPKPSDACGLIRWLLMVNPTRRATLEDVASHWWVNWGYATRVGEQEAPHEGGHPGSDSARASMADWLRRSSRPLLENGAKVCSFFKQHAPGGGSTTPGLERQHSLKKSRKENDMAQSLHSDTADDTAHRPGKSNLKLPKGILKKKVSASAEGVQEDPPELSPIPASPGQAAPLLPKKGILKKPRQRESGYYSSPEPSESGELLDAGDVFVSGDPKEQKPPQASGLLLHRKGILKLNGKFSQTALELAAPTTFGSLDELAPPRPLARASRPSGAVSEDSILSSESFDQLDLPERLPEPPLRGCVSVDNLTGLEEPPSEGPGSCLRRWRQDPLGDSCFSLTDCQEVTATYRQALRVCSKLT

[5] = molecular target: Calcium/calmodulin-dependent protein kinase kinase 2 (Homo sapiens, UniProt Q96RR4)
Calcium/calmodulin-dependent protein kinase kinase 2, sequence (Q96RR4 whole entry): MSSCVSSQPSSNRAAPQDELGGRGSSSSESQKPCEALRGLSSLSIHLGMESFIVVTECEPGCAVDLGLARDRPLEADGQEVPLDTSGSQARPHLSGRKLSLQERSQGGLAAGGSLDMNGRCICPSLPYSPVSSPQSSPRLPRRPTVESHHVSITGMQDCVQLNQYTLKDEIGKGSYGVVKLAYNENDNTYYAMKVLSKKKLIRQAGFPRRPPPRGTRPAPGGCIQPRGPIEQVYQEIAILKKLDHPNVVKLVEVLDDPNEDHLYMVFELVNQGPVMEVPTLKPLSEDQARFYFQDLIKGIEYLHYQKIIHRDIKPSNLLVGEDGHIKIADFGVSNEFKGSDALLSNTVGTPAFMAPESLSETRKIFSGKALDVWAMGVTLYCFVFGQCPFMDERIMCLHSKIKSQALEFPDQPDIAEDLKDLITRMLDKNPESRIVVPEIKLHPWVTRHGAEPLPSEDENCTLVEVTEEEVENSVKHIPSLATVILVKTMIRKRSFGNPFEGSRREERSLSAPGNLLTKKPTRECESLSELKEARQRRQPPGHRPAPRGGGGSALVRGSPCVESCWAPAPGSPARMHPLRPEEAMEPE

[6] = molecular target: T3, Septin-9 (Homo sapiens, UniProt Q9UHD8)
T3 sequence (Q9UHD8 whole entry): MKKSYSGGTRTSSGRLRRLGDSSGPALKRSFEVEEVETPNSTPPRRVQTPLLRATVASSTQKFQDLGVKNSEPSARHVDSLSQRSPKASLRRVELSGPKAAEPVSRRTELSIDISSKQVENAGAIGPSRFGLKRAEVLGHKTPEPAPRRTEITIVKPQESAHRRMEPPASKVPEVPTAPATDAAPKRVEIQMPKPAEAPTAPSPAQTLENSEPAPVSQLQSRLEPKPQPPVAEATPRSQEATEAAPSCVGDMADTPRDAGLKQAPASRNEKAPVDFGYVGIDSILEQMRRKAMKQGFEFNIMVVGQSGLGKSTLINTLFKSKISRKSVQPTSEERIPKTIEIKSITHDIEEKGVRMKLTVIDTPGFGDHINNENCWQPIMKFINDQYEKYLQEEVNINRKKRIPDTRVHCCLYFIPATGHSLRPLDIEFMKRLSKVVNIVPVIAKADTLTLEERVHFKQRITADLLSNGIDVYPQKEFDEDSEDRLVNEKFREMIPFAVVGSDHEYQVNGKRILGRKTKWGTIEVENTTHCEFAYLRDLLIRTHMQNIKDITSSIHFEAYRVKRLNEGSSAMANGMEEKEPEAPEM
Note: in the data inactive means no Kd found up to 30 µM.

Tyrosine-protein kinase CSK, sequence (P41240 whole entry): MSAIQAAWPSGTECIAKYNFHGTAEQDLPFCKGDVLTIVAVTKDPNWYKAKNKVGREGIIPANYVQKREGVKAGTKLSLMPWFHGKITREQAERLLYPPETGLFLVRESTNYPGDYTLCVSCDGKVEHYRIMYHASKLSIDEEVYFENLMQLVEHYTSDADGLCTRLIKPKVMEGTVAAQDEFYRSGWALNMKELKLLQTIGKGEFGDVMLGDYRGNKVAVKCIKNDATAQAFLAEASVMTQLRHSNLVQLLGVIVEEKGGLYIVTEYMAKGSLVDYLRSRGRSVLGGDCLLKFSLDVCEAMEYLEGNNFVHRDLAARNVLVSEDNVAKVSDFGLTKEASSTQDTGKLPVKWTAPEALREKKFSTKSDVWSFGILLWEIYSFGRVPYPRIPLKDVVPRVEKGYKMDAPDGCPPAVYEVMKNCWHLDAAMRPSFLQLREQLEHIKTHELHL

Row | SMILES | Kd [1] | Kd [2] | Kd [3] | Kd [4] | Kd [5] | Kd [6]
1 | O=S(=O)(c1cccc2cnccc12)N1CCCNCC1 [FASUDIL] | > 30 µM (inactive) | > 30 µM (inactive) | > 30 µM (inactive) | > 30 µM (inactive) | > 30 µM (inactive) | > 30 µM (inactive)
2 | CNC(=O)c1cc(COc2nnc(Nc3ccc(Cl)cc3)c3ccoc23)ccn1 [TELATINIB] | > 30 µM (inactive) | > 30 µM (inactive) | > 30 µM (inactive) | > 30 µM (inactive) | > 30 µM (inactive) | > 30 µM (inactive)
3 | COc1cc(F)c(F)c(Nc2ccc(I)cc2F)c1NS(=O)(=O)C1(C[C@H](O)CO)CC1 [REFAMETINIB] | > 30 µM (inactive) | > 30 µM (inactive) | > 30 µM (inactive) | > 30 µM (inactive) | > 30 µM (inactive) | > 30 µM (inactive)
4 | COc1cccc2cc(-c3nc([C@H]4CC[C@H](C(=O)O)CC4)n4ncnc(N)c34)[nH]c12 [OSI-027] | > 30 µM (inactive) | > 30 µM (inactive) | > 30 µM (inactive) | > 30 µM (inactive) | > 30 µM (inactive) | > 30 µM (inactive)
5 | CNC(=O)c1ccc(Nc2ncc(C(F)(F)F)c(NCc3nccnc3N(C)S(C)(=O)=O)n2)cc1 [DEFACTINIB] | > 30 µM (inactive) | 10.8 µM (active) | > 30 µM (inactive) | 0.454 µM | > 30 µM (inactive) | > 30 µM (inactive)
6 | Cc1ccc(C(=O)Nc2ccc(Oc3cc4cnn(C)c4cc3-c3cn[nH]c3)c(F)c2)c(=O)n1-c1ccc(F)cc1 [MERESTINIB] | > 30 µM (inactive) | > 30 µM (inactive) | > 30 µM (inactive) | > 30 µM (inactive) | > 30 µM (inactive) | > 30 µM (inactive)
7 | CC(C)(O)CC(=O)NCCn1ccc2ncnc(Nc3ccc(Oc4cccc(C(F)(F)F)c4)c(Cl)c3)c21 [TAK-285] | > 30 µM (inactive) | > 30 µM (inactive) | > 30 µM (inactive) | > 30 µM (inactive) | > 30 µM (inactive) | > 30 µM (inactive)
8 | CNC(=O)c1cccc(-c2ccc3c(N4CCOC[C@@H]4C)nc(N4CCOC[C@@H]4C)nc3n2)c1 [VISTUSERTIB] | > 30 µM (inactive) | > 30 µM (inactive) | > 30 µM (inactive) | > 30 µM (inactive) | > 30 µM (inactive) | > 30 µM (inactive)
9 | c1cc(OCCN2CCCCC2)cc(-c2n[nH]c3ccc(-c4nc[nH]n4)cc23)c1 [CC-401] | > 30 µM (inactive) | > 30 µM (inactive) | > 30 µM (inactive) | > 30 µM (inactive) | > 30 µM (inactive) | > 30 µM (inactive)
10 | C=CC(=O)Nc1cc(Nc2nccc(-c3cn(C)c4ccccc34)n2)c(OC)cc1N(C)CCN(C)C [OSIMERTINIB] | > 30 µM (inactive) | > 30 µM (inactive) | > 30 µM (inactive) | > 30 µM (inactive) | > 30 µM (inactive) | > 30 µM (inactive)
11 | COc1cc(Nc2ncc(F)c(Nc3ccc4c(n3)N(COP(=O)(O)O)C(=O)C(C)(C)O4)n2)cc(OC)c1OC [FOSTAMATINIB] | > 30 µM (inactive) | > 30 µM (inactive) | > 30 µM (inactive) | > 30 µM (inactive) | > 30 µM (inactive) | > 30 µM (inactive)
12 | CC[C@@](C)(Nc1ccnc(-c2c[nH]c3ncccc23)n1)C(=O)NCC(F)(F)F [DECERNOTINIB] | > 30 µM (inactive) | 7.87 µM (active) | > 30 µM (inactive) | > 30 µM (inactive) | > 30 µM (inactive) | > 30 µM (inactive)
13 | C=CCn1c(=O)c2cnc(Nc3ccc(N4CCN(C)CC4)cc3)nc2n1-c1cccc(C(C)(C)O)n1 [ADAVOSERTIB] | > 30 µM (inactive) | > 30 µM (inactive) | > 30 µM (inactive) | > 30 µM (inactive) | > 30 µM (inactive) | > 30 µM (inactive)
14 | O=c1[nH]c([C@@H]2CCCN2)nc2c1oc1ccc(Cl)cc12 | > 30 µM (inactive) | 2.29 µM (active) | > 30 µM (inactive) | > 30 µM (inactive) | > 30 µM (inactive) | > 30 µM (inactive)
15 | Cc1c(Cn2c(C)nc3c(C(=O)O)cc(N4CCOCC4)cc32)cccc1C(F)(F)F [GSK-2636771] | > 30 µM (inactive) | > 30 µM (inactive) | > 30 µM (inactive) | > 30 µM (inactive) | > 30 µM (inactive) | > 30 µM (inactive)
16 | Cn1cc(-c2[nH]c3cc(NC(=O)[C@H](N)C4CCCCC4)cc4c3c2C=NNC4=O)cn1 | > 30 µM (inactive) | > 30 µM (inactive) | > 30 µM (inactive) | > 30 µM (inactive) | > 30 µM (inactive) | > 30 µM (inactive)
17 | NC(=O)c1ccc(N(C(N)=O)c2c(F)cccc2F)nc1-c1ccc(F)cc1F [VX-702] | > 30 µM (inactive) | > 30 µM (inactive) | > 30 µM (inactive) | > 30 µM (inactive) | > 30 µM (inactive) | > 30 µM (inactive)
18 | COCCN1CCN(Cc2ccc(-c3n[nH]c4c3C(=O)c3c(NC(=O)NN5CCOCC5)cccc3-4)cc2)CC1 [RGB-286638] | > 30 µM (inactive) | > 30 µM (inactive) | > 30 µM (inactive) | > 30 µM (inactive) | > 30 µM (inactive) | > 30 µM (inactive)
19 | CCc1nc(C(N)=O)c(Nc2ccc(N3CCC(N4CCN(C)CC4)CC3)c(OC)c2)nc1NC1CCOCC1 [GILTERITINIB] | > 30 µM (inactive) | > 30 µM (inactive) | > 30 µM (inactive) | > 30 µM (inactive) | 2.65 µM (active) | > 30 µM (inactive)
20 | COc1cccc(Nc2ncnn3ccc(CN4CC[C@@H](N)[C@H](O)C4)c23)c1 [BMS-690514] | 1.72 µM (active) | > 30 µM (inactive) | > 30 µM (inactive) | > 30 µM (inactive) | > 30 µM (inactive) | > 30 µM (inactive)
21 | C=CC(=O)Nc1cccc(Nc2nc(Nc3ccc(N4CCN(C(C)=O)CC4)cc3OC)ncc2C(F)(F)F)c1 [ROCILETINIB] | > 30 µM (inactive) | > 30 µM (inactive) | > 30 µM (inactive) | > 30 µM (inactive) | > 30 µM (inactive) | > 30 µM (inactive)
22 | O=C(NOC[C@H](O)CO)c1ccc(F)c(F)c1Nc1ccc(I)cc1F [MIRDAMETINIB] | > 30 µM (inactive) | > 30 µM (inactive) | > 30 µM (inactive) | > 30 µM (inactive) | > 30 µM (inactive) | > 30 µM (inactive)
23 | O=C(Nc1ccc(OC(F)(F)F)cc1)c1sccc1NCc1ccnc2ccccc12 [OSI-930] | > 30 µM (inactive) | > 30 µM (inactive) | > 30 µM (inactive) | > 30 µM (inactive) | > 30 µM (inactive) | > 30 µM (inactive)
